Experimental data taken from US7173004B2, “Macrocyclic isoquinoline peptide inhibitors of hepatitis C virus” (Bristol-Myers Squibb Company, priority 2003, dated 2007).

Test system: HCV replicon (HCV 1b-377-neo replicon cells, Huh7)
Assay: HCV replicon cell-based FRET assay
Settings: Hepatitis C virus, Huh-7
Method: HCV Replion assays were utilized in the present invention, and were prepared, conducted and validated as follows:
An HCV replicon whole cell system was established as described by Lohmann V, Korner F, Koch J, Herian U, Theilmann L, Bartenschlager R., Science 285(5424): 110–3 (1999). This system enabled us to evaluate the effects of our HCV Protease compounds on HCV RNA replication. Briefly, using the HCV strain 1B sequence described in the Lohmann paper (Assession number: AJ238799), an HCV cDNA was synthesized by Operon Technologies, Inc. (Alameda, Calif.), and the full-length replicon was then assembled in plasmid pGem9zf(+) (Promega, Madison, Wis.) using standard molecular biology techniques. The replicon consists of (i) the HCV 5′ UTR fused to the first 12 amino acids of the capsid protein, (ii) the neomycin phosphotransferase gene (neo), (iii) the IRES from encephalomyocarditis virus (EMCV), and (iv) HCV NS3 to NS5B genes and the HCV 3′ UTR. Plasmid DNAs were linearized with ScaI and RNA transcripts were synthesized in vitro using the T7 MegaScript transcription kit (Ambion, Austin, Tex.) according to manufacturer's directions. To generate cell lines, 4×10^6 Huh-7 cells (kindly provided by R. Bartenschlager and available from Health Science Research Resources Bank, Japan Health Sciences Foundation) were electroporated (GenePulser System, Bio-Rad) with 10 microgram(“μg”) of RNA transcript and plated into 100-mm dishes. After 24 h, selective media containing 1.0 milligrams/milliliter (“mg/ml”) G418 was added and media was changed every 3 to 5 days. Approximately 4 weeks after electroporation, small colonies were visible which were isolated and expanded for further analysis. These cell lines were maintained at 37° C., 5% CO2, 100% relative humidity in DMEM (Cat# 11965-084) Gibco-BRL, Rockville, Md., with 10% heat inactivated calf serum (Sigma), 10 ml of 100× penicillin/streptomycin (Cat# 15140-122) Gibco-BRL, Rockville, Md., Geneticin (Cat# 10131-027) Gibco-BRL, Rockville, Md. at 1 mg/ml. One of the cell lines (deposited as ATCC Accession No. PTA-4583 in the American Type Culture Collection) which had approximately 3,000 copies of HCV replicon RNA/cell was used for development of the assay (HCV 1b-377-neo replicon cells).
Huh7 cells, constitutively expressing the HCV replicon, were grown in Dulbecco's Modified Eagle Media (DMEM) containing 10% Fetal calf serum (FCS) and 1 mg/ml G418 (Gibco-BRL). Cells were seeded the night before (1.5×10^4 cells/well) in 96-well tissue-culture sterile plates. Compound and no compound controls were prepared in DMEM containing 4% FCS, 1:100 Penicillin/Streptomysin, 1:100 L-glutamine and 5% DMSO in the dilution plate (0.5% DMSO final concentration in the assay). Compound/DMSO mixes were added to the cells and incubated for 4 days at 37° C. After 4 days, cells were first assessed for cytotoxicity using alamar Blue (Trek Diagnotstic Systems) for a CC50 reading. The toxicity of compound (CC50) was determined by adding 1/10th volume of alamar Blue to the media incubating the cells. After 4 hr, the fluorescence signal from each well was read, with an excitation wavelength at 530 nm and an emission wavelength of 580 nm, using the Cytofluor Series 4000 (Perspective Biosystems). Plates were then rinsed thoroughly with Phosphate-Buffered Saline (PBS) (3 times 150 μl). The cells were lysed with 25 μl of a lysis assay reagent containing an HCV protease substrate (5× cell Luciferase cell culture lysis reagent (Promega #E153A) diluted to 1× with distilled water, NaCl added to 150 mM final, the FRET peptide diluted to 10 μM final from a 2 mM stock in 100% DMSO). The HCV protease substrate (FRET peptide; AnaSpec, Inc. cat #22991, described by Taliani et al. in Anal. Biochem. 240(2):60–67 (1996)) contains a fluorescence donor, EDANS, near one end of the peptide and an acceptor, DABCYL, near the other end. […]

## COCC(=O)NC1CCCCCC=CC2CC2(C(=O)NS(=O)(=O)C2CC2)NC(=O)C2CC(Oc3nccc4ccccc34)CN2C1=O (stereo not drawn) [Compound 24]
  EC50: 50 to 500 nM

## COc1ccc2c(OC3CC4C(=O)NC5(C(=O)NS(=O)(=O)C6(C)CC6)CC5C=CCCCOC(C)C(NC(=O)OCC(C)(C)C)C(=O)N4C3)nccc2c1 (stereo not drawn) [Compound 67]
  EC50: 50 to 500 nM

## COc1ccc2c(O[C@@H]3C[C@H]4C(=O)N[C@]5(C(=O)NS(=O)(=O)C6CC6)C[C@H]5/C=C\CCCCC[C@H](NC(=O)OC(C)(C)C)C(=O)N4C3)nccc2c1 [Compound 17B, [4-Cyclopropanesulfonylaminocarbonyl-18-(6-methoxy-isoquinolin-1-yloxy)-2,15-dioxo-3,16-diaza-tricyclo[14.3.0.0^4,6]nonadec-7-en-14-yl]-carbamic acid tert-butyl ester]
  EC50: < 50 nM

## O=C(N[C@H]1CCCCC/C=C\[C@@H]2C[C@@]2(C(=O)NS(=O)(=O)C2CC2)NC(=O)[C@@H]2C[C@@H](Oc3nccc4ccccc34)CN2C1=O)O[C@H]1CCOC1 [Compound 15, [4-Cyclopropanesulfonylaminocarbonyl-18-(isoquinolin-1-yloxy)-2,15-dioxo-3,16-diaza-tricyclo[14.3.0.0^4,6]nonadec-7-en-14-yl]-carbamic acid tetrahydro-furan-3-yl ester]
  EC50: < 50 nM

## COc1ccc2c(OC3CC4C(=O)NC5(C(=O)NS(=O)(=O)C6CC6)CC5C=CCOCCCC(NC(=O)OC(C)(C)C(F)(F)F)C(=O)N4C3)nccc2c1 (stereo not drawn) [Compound 39]
  EC50: < 50 nM

## COc1ccc2c(OC3CC4C(=O)NC5(C(=O)NS(=O)(=O)C6(C)CC6)CC5C=CCOCCCC(NC(=O)OC(C)(C)C)C(=O)N4C3)nccc2c1 (stereo not drawn) [Compound 29]
  EC50: < 50 nM

## CCCC1(S(=O)(=O)NC(=O)[C@@]23C[C@H]2CCCCCCC[C@H](NC(=O)OC(C)(C)C)C(=O)N2C[C@H](Oc4nccc5ccccc45)C[C@H]2C(=O)N3)CC1 [Compound 7, [18-(Isoquinolin-1-yloxy)-2,15-dioxo-4-(1-propyl-cyclopropanesulfonylaminocarbonyl)-3,16-diaza-tricyclo[14.3.0.0^4,6]nonadec-14-yl]-carbamic acid tert-butyl ester]
  EC50: < 50 nM

## COc1ccc2c(OC3CC4C(=O)NC5(C(=O)NS(=O)(=O)C6CC6)CC5C=CCOCCCC(NC(=O)OCC(C)(C)C)C(=O)N4C3)nccc2c1 (stereo not drawn) [Compound 32]
  EC50: < 50 nM

## COc1ccc2c(OC3CC4C(=O)NC5(C(=O)NS(=O)(=O)C6CC6)CC5C=CCOCCCC(NC(=O)OC(C)C)C(=O)N4C3)nccc2c1 (stereo not drawn) [Compound 31]
  EC50: < 50 nM

## COc1ccc2c(OC3CC4C(=O)NC5(C(=O)O)CC5C=CCCCCC(NC(=O)OC(C)(C)C)C(=O)N4C3)nccc2c1 (stereo not drawn) [Compound 143]
  EC50: 500 to 5000 nM

## CCC1(S(=O)(=O)NC(=O)C23CC2C=CCOCCCC(NC(=O)OC(C)C)C(=O)N2CC(Oc4nccc5cc(OC)ccc45)CC2C(=O)N3)CC1 (stereo not drawn) [Compound 37]
  EC50: < 50 nM

## CC(C)(C)OC(=O)NC1CCCCCC=CC2CC2(C(=O)NS(=O)(=O)C2CC2)NC(=O)C2CC(Oc3nc(Cl)cc4ccccc34)CN2C1=O (stereo not drawn) [Compound 57]
  EC50: < 50 nM

## CCC1(S(=O)(=O)NC(=O)C23CC2C=CCCCOC(C)C(NC(=O)OC(C)(C)C)C(=O)N2CC(Oc4nccc5cc(OC)ccc45)CC2C(=O)N3)CC1 (stereo not drawn) [Compound 70]
  EC50: 50 to 500 nM

## COc1ccc2c(OC3CC4C(=O)NC5(C(=O)O)CC5C=CCCCSCC(NC(=O)OC(C)(C)C)C(=O)N4C3)nccc2c1 (stereo not drawn) [Compound 18A, 14-tert-Butoxycarbonylamino-18-(6-methoxy-isoquinolin-1-yloxy)-2,15-dioxo-12-thia-3,16-diaza-tricyclo[14.3.0.0^4,6]nonadec-7-ene-4-carboxylic acid]
  EC50: 500 to 5000 nM

## CC1(OC(=O)N[C@H]2CCCCC/C=C\[C@@H]3C[C@@]3(C(=O)NS(=O)(=O)C3CC3)NC(=O)[C@@H]3C[C@@H](Oc4nccc5ccccc45)CN3C2=O)CCC1 [Compound 56, [(Z)-(1S,4R,14S,18R)-4-cyclopropanesulfonylaminocarbonyl-18-(isoquinolin-1-yloxy)-2,15-dioxo-3,16-diaza-tricyclo[14.3.0.0^4,6]nonadec-7-en-14-yl]-carbamic acid 1-methyl-cyclobutyl ester]
  EC50: < 50 nM

## CCC1(S(=O)(=O)NC(=O)C23CC2C=CCCCSCC(NC(=O)OCC(C)(C)C)C(=O)N2CC(Oc4nccc5cc(OC)ccc45)CC2C(=O)N3)CC1 (stereo not drawn) [Compound 45]
  EC50: < 50 nM

## CCCNC(=O)NC1CCCCCC=CC2CC2(C(=O)NS(=O)(=O)C2CC2)NC(=O)C2CC(Oc3nccc4ccccc34)CN2C1=O (stereo not drawn) [Compound 23]
  EC50: < 50 nM

## COc1ccc2c(OC3CC4C(=O)NC5(C(=O)NS(=O)(=O)C6(C)CC6)CC5C=CCCCSCC(NC(=O)OCC(C)(C)C)C(=O)N4C3)nccc2c1 (stereo not drawn) [Compound 42]
  EC50: < 50 nM

## CCC1(S(=O)(=O)NC(=O)C23CC2C=CCCCCCC(NC(=O)OC(C)(C)C)C(=O)N2CC(Oc4nccc5cc(OC)ccc45)CC2C(=O)N3)CC1 (stereo not drawn) [Compound 54]
  EC50: < 50 nM

## CC(C)(C)OC(=O)N[C@H]1CN(S(=O)(=O)c2ccccc2[N+](=O)[O-])CCC/C=C\[C@@H]2C[C@@]2(C(=O)O)NC(=O)[C@@H]2C[C@@H](Oc3nccc4ccccc34)CN2C1=O [Compound 144]
  EC50: 5000 to 50000 nM

## COc1ccc2c(OC3CC4C(=O)NC5(C(=O)NS(=O)(=O)C6(C)CC6)CC5C=CCOCCCC(NC(=O)OC(C)C)C(=O)N4C3)nccc2c1 (stereo not drawn) [Compound 35]
  EC50: < 50 nM

## COc1ccc2c(OC3CC4C(=O)NC5(C(=O)NS(=O)(=O)C6CC6)CC5C=CCCCSCC(NC(=O)OC(C)C)C(=O)N4C3)nccc2c1 (stereo not drawn) [Compound 74]
  EC50: < 50 nM

## COc1ccc2c(OC3CC4C(=O)NC5(C(=O)NS(=O)(=O)C6(C)CC6)CC5C=CCCCS(=O)(=O)CC(NC(=O)OC(C)(C)C)C(=O)N4C3)nccc2c1 (stereo not drawn) [Compound 49]
  EC50: 500 to 5000 nM

## COc1ccc2c(O[C@@H]3C[C@H]4C(=O)N[C@]5(C(=O)O)C[C@H]5/C=C\CCCSC(C)(C)[C@H](NC(=O)OC(C)(C)C)C(=O)N4C3)nccc2c1 [Compound 79, (1S,4R,6S,14R,18R)-7-cis-14-tert-Butoxycarbonylamino-13,13-dimethyl-18-(6-methoxy-isoquinolin-1-yloxy)-2,15-dioxo-12-thia-3,16-diazatricyclo[14.3.0.0^4,6]nonadec-7-ene-4-carboxylic acid]
  EC50: 5000 to 50000 nM

## COc1ccc2c(O[C@@H]3C[C@H]4C(=O)N[C@]5(C(=O)O)C[C@H]5/C=C\CCCOC[C@H](NC(=O)OC(C)(C)C)C(=O)N4C3)nccc2c1 [Compound 84, (1S,4R,6S,14S,18R)-7-cis-14-tert-Butoxycarbonylamino-18-(6-methoxyisoquinolin-1-yloxy)-2,15-dioxo-12-oxa-3,16-diazatricyclo[14.3.0.0^4,6]-nonadec-7-ene-4-carboxylic acid]
  EC50: 500 to 5000 nM

## CC(C)(C)OC(=O)N[C@H]1CCCCC/C=C\[C@@H]2C[C@@]2(C(=O)NS(=O)(=O)C2CC2)NC(=O)[C@@H]2C[C@@H](Oc3nccc4ccccc34)CN2C1=O [Compound 4, [4-Cyclopropanesulfonylaminocarbonyl-18-(isoquinolin-1-yloxy)-2,15-dioxo-3,16-diaza-tricyclo[14.3.0.0^4,6]nonadec-7-en-14-yl]-carbamic acid tert-butyl ester]
  EC50: < 50 nM

## COc1ccc2c(OC3CC4C(=O)NC5(C(=O)NS(=O)(=O)C6CC6)CC5C=CCCCOC(C)C(NC(=O)OC(C)C)C(=O)N4C3)nccc2c1 (stereo not drawn) [Compound 64]
  EC50: 50 to 500 nM
